Where a name gives a salt, the structure may show the parent alone.
Tests used:
[1] = X-RD analysis of crystalline form after storage; assay type: physicochemical; details: 3 months storage, normal and accelerated conditions (40°C and 75% RH)
Procedure: As shown in FIG. 1 by the X-RD analysis Tolterodine Tartrate is in crystalline form and all the recorded characteristic broad peaks (approximate 20 values=12.55, 16.40, 20.00, 21.20, 22.75, 23.80, 25.65, 27.45, 34.60 and 37.60) were unchanged after 3 months storage in both normal and accelerated conditions (40° C. and 75% RH). The crystal properties remain also unchanged after three months in the same conditions when the mixture is incorporated in a pharmaceutical composition with other excipients.

[2] = Flowability and compressibility (Carr's Index); assay type: physicochemical
Description: The pharmaceutical composition is characterized by excellent pharmacotechnical properties, such as homogeneity, flowability and compressibility.

Cc1ccc(O)c([C@H](CCN(C(C)C)C(C)C)c2ccccc2)c1 [Tolterodine Tartrate, (R)—N,N-diisopropyl-3-(2-hydroxy-5-methylphenyl)-3-phenylpropylamine]
X-RD characteristic peaks of crystalline form after storage [1]: unchanged | mean Carr's Index [2]: 38.7%

Reference: patent US20100297225A1, “SUSTAINED-RELEASE PHARMACEUTICAL FORMULATION CONTAINING AN ANTIMUSCARINIC AGENT AND A WETTING AGENT AS WELL AS A PROCESS FOR THE PREPARATION THEREOF” (PHARMATHEN S.A., priority 2007, published 2010)
